Key:
Human plasma kallikrein = Human plasma kallikrein (Homo sapiens (Human), UniProt P03952); assay: Kallikrein Assay (fluorogenic substrate Acetyl-K-P-R-AFC); type: biochemical; details: Plasma Kallikrein (PKal)
In short: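 Ki is derived from IC50 with the Cheng-Prusoff equation, and IC50 from the inflection point of a four-parameter logistic curve. The rate of AFC release is read with 0.5 nM purified enzyme and […] substrate at room temperature or 37 °C.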

human Factor XIa = human Factor XIa (Homo sapiens (Human), UniProt P03951); assay: Factor XIa Assay (fluorogenic substrate GPR-AFC); type: biochemical; details: Factor XIa (FXIa)
human Factor XIa, sequence (P03951 388-625 limits assumed): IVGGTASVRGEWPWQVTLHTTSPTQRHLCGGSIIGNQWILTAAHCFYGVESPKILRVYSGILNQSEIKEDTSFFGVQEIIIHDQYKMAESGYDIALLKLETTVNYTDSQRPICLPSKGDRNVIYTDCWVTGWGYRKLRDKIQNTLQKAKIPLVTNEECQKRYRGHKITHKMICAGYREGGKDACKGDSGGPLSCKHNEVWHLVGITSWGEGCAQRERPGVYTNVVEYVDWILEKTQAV
human Factor XIa, sequence (P03951 19-387 partner limits assumed): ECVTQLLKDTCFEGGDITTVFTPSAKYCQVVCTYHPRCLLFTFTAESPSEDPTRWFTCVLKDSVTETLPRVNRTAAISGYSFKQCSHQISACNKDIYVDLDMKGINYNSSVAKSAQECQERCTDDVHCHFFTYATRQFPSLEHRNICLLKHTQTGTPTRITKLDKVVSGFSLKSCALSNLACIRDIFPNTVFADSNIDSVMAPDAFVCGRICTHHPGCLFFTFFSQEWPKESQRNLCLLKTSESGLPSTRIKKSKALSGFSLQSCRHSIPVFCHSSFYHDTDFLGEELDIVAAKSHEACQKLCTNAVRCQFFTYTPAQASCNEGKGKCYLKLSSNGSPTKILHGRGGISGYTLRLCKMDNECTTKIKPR

Human plasma kallikrein, sequence (P03952 391-638): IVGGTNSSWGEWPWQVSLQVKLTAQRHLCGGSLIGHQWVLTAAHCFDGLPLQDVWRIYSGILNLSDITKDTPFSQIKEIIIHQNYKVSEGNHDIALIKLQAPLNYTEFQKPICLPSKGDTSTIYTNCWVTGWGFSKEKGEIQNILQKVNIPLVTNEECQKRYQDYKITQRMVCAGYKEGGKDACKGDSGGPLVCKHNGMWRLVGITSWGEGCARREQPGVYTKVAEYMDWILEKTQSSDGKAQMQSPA
Human plasma kallikrein, sequence (P03952 20-390 partner): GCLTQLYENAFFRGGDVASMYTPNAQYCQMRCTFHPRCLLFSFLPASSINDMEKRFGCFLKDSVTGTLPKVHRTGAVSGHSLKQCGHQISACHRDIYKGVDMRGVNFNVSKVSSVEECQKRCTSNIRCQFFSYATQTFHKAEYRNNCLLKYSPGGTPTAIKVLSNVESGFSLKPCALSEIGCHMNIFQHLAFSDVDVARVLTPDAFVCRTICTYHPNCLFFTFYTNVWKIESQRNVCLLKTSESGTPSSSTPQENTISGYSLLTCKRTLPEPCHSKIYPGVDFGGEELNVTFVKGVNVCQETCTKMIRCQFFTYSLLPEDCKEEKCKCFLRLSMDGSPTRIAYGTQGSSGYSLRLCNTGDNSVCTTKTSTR

| SMILES | IC50 (Human plasma kallikrein) [nM] | IC50 (human Factor XIa) [nM] |
| --- | --- | --- |
| Cc1cc(Cn2cc(NC(=O)c3nc(-c4c(C(F)F)ccc(Cl)c4F)cnc3C)cn2)nnc1N1C[C@H]2C[C@H]2C1=O [Example 83, 6-(3-Chloro-6-(difluoromethyl)-2-fluorophenyl)-3-methyl-N-(1-((5-methyl-6-((1R,5S)-2-oxo-3-azabicyclo[3.1.0]hexan-3-yl)pyridazin-3-yl)methyl)-1H-pyrazol-4-yl)pyrazine-2-carboxamide] | 3.4 | 259 |
| Cc1cc(N2C[C@H]3C[C@H]3C2=O)nnc1Cn1cc(NC(=O)c2nc(-c3c(C(F)F)ccc(Cl)c3F)cnc2C)cn1 [Example 84, 6-(3-Chloro-6-(difluoromethyl)-2-fluorophenyl)-3-methyl-N-(1-((4-methyl-6-((1R,5S)-2-oxo-3-azabicyclo[3.1.0]hexan-3-yl)pyridazin-3-yl)methyl)-1H-pyrazol-4-yl)pyrazine-2-carboxamide] | 20.7 | 5710 |
| Cc1nc(N2C[C@H]3C[C@H]3C2=O)ncc1Cn1cc(NC(=O)c2nc(-c3c(S(C)(=O)=O)ccc(Cl)c3F)cnc2C)cn1 [Example 85, 6-(3 -Chloro-2-fluoro-6-(methylsulfonyl)phenyl)-3-methyl-N-(1-((4-methyl-2-((1R,5S)-2-oxo-3-azabicyclo[3.1.0]hexan-3-yl)pyrimidin-5-yl)methyl)-1H-pyrazol-4-yl)pyrazine-2-carboxamide] | 10.1 | 2070 |
| Cc1ncc(-c2c(C(F)F)ccc(Cl)c2F)nc1C(=O)Nc1cnn(Cc2nnc(N3C[C@H]4C[C@H]4C3=O)c(C)c2C)c1 [Example 88, 6-(3-Chloro-6-(difluoromethyl)-2-fluorophenyl)-N-(1-((4,5-dimethyl-6-((1R,5S)-2-oxo-3-azabicyclo[3.1.0]hexan-3-yl)pyridazin-3-yl)methyl)-1H-pyrazol-4-yl)-3-methylpyrazine-2-carboxamide] | 0.7 | 127 |
| Cc1ncc(-c2c(C(F)F)ccc(Cl)c2F)nc1C(=O)Nc1cnn(C(C)c2cnc(N3C[C@H]4C[C@H]4C3=O)c(Cl)c2)c1 (stereo partly drawn) [Example 91, N-(1-((S)-1-(5-chloro-6-((1R,5S)-2-oxo-3-azabicyclo[3.1.0]hexan-3-yl)pyridin-3-yl)ethyl)-1H-pyrazol-4-yl)-6-(3-chloro-6-(difluoromethyl)-2-fluorophenyl)-3-methylpyrazine-2-carboxamide] | 1.3 | 2580 |
| Cc1ncc(-c2c(C(F)F)ccc(Cl)c2F)nc1C(=O)Nc1cnn(C(C)c2cnc(N3C[C@H]4C[C@H]4C3=O)c(Cl)c2)c1 (stereo partly drawn) [Example 92, N-(1-((S)-1-(5-chloro-6-((1R,5S)-2-oxo-3-azabicyclo[3.1.0]hexan-3-yl)pyridin-3-yl)ethyl)-1H-pyrazol-4-yl)-6-(3-chloro-6-(difluoromethyl)-2-fluorophenyl)-3-methylpyrazine-2-carboxamide] | 1.3 | 577 |
| Cc1nc(Cn2cc(NC(=O)c3nc(-c4c(C(F)F)ccc(Cl)c4F)cnc3C)cn2)ncc1N1C[C@H]2C[C@H]2C1=O [Example 93, 6-(3-Chloro-6-(difluoromethyl)-2-fluorophenyl)-3-methyl-N-(1-((4-methyl-5-((1R,5S)-2-oxo-3-azabicyclo[3.1.0]hexan-3-yl)pyrimidin-2-yl)methyl)-1H-pyrazol-4-yl)pyrazine-2-carboxamide] | 19.9 | > 10000 |
| Cc1nc(Cn2cc(NC(=O)c3nc(-c4c(C(F)F)ccc(Cl)c4F)cnc3C(F)F)cn2)cnc1N1C[C@H]2C[C@H]2C1=O [Example 94, 6-(3-Chloro-6-(difluoromethyl)-2-fluorophenyl)-3-(difluoromethyl)-N-(1-((6-methyl-5-((1R, 5S)-2-oxo-3-azabicyclo[3.1.0]hexan-3-yl)pyrazin-2-yl)methyl)-1H-pyrazol-4-yl)pyrazine-2-carboxamide] | 1.6 | 1010 |
| COc1nc(N2C[C@H]3C[C@H]3C2=O)ncc1Cn1cc(NC(=O)c2nc(-c3c(C(F)F)ccc(Cl)c3F)cnc2C)cn1 [Example 95, 6-(3-Chloro-6-(difluoromethyl)-2-fluorophenyl)-N-(1-((4-methoxy-2-((1R, 5S)-2-oxo-3-azabicyclo[3.1.0]hexan-3-yl)pyrimidin-5-yl)methyl)-1H-pyrazol-4-yl)-3-methylpyrazine-2-carboxamide] | 14.3 | 4590 |
| Cc1ccc(Cl)c(F)c1-c1cnc(C)c(C(=O)Nc2cnn(Cc3nnc(N4C[C@H]5C[C@H]5C4=O)c(C)c3C)c2)n1 [Example 112, 6-(3 -Chloro-2-fluoro-6-methylphenyl)-N-(1-((4,5-dimethyl-6-((1R,5S)-2-oxo-3-azabicyclo[3.1.0]hexan-3-yl)pyridazin-3-yl)methyl)-1H-pyrazol-4-yl)-3-methylpyrazine-2-carboxamide] | 4.8 | 1200 |
| Cc1cc(Cn2cc(NC(=O)c3nc(-c4c(OC(F)F)ccc(Cl)c4F)cnc3C)cn2)nnc1N1C[C@H]2C[C@H]2C1=O [Example 113, 6-(3-Chloro-6-(difluoromethoxy)-2-fluorophenyl)-3-methyl-N-(1-((5-methyl-6-((1R,SS)-2-oxo-3-azabicyclo[3.1.0]hexan-3-yl)pyridazin-3-yl)methyl)-1H-pyrazol-4-yl)pyrazine-2-carboxamide] | 2.1 | 114 |
| O=C(Nc1cnn(Cc2cnc(N3C[C@H]4C[C@H]4C3=O)nc2)c1)c1nc(-c2c(C(F)F)ccc(Cl)c2F)cnc1COC1CC1 [Example 116, 6-(3-Chloro-6-(difluoromethyl)-2-fluorophenyl)-3-(cyclopropoxymethyl)-N-(1-((2-((1R,5S)-2-oxo-3-azabicyclo[3.1.0]hexan-3-yl)pyrimidin-5-yl)methyl)-1H-pyrazol-4-yl)pyrazine-2-carboxamide] | 19.1 | 4380 |
| Cc1ncc(-c2c(C(F)F)ccc(Cl)c2F)nc1C(=O)Nc1cnn(Cc2ncc(N3C[C@H]4C[C@H]4C3=O)cc2F)c1 [Example 138, 6-(3-Chloro-6-(difluoromethyl)-2-fluorophenyl)-N-(1-((3-fluoro-5-((1R,5S)-2-oxo-3-azabicyclo[3.1.0]hexan-3-yl)pyridin-2-yl)methyl)-1H-pyrazol-4-yl)-3-methylpyrazine-2-carboxamide] | 47 | > 10000 |
| O=C(Nc1cnn(Cc2ccc(N3C[C@H]4C[C@H]4C3=O)cc2)c1)c1cncc(-c2c(C(F)F)ccc(Cl)c2F)n1 [Example 145, 6-(3-Chloro-6-(difluoromethyl)-2-fluorophenyl)-N-(1-(4-((1R,5S)-2-oxo-3-azabicyclo[3.1.0]hexan-3-yl)benzyl)-1H-pyrazol-4-yl)pyrazine-2-carboxamide] | 2.4 | > 10000 |
| Cc1ncc(-c2c(C(F)F)ccc(Cl)c2F)nc1C(=O)Nc1cnn(Cc2cnc(N3C[C@H]4C[C@H]4C3=O)c3c2OCO3)c1 [Example 149, 6-(3-Chloro-6-(difluoromethyl)-2-fluorophenyl)-3-methyl-N-(1-((4-((1R,5S)-2-oxo-3-azabicyclo[3.1.0]hexan-3-yl)-[1,3]dioxolo[4,5-c]pyridin-7-yl)methyl)-1H-pyrazol-4-yl)pyrazine-2-carboxamide] | 0.9 | 244 |
| Cc1nc(N2C[C@H]3C[C@H]3C2=O)c(F)cc1C(C)n1cc(NC(=O)c2cncc(-c3c(C(F)F)ccc(Cl)c3F)n2)cn1 (stereo partly drawn) [Example 150, 6-(3-Chloro-6-(difluoromethyl)-2-fluorophenyl)-N-(1-(1-(5-fluoro-2-methyl-6-((1R.5S)-2-oxo-3-azabicyclo[3.1.0]hexan-3-yl)pyridin-3-yl)ethyl)-1H-pyrazol-4-yl)pyrazine-2-carboxamide] | 177 | > 10000 |
| Cc1nc(N2C[C@H]3C[C@H]3C2=O)c(F)cc1C(C)n1cc(NC(=O)c2cncc(-c3c(C(F)F)ccc(Cl)c3F)n2)cn1 (stereo partly drawn) [Example 151, 6-(3-Chloro-6-(difluoromethyl)-2-fluorophenyl)-N-(1-(1-(5-fluoro-2-methyl-6-((1R.5S)-2-oxo-3-azabicyclo[3.1.0]hexan-3-yl)pyridin-3-yl)ethyl)-1H-pyrazol-4-yl)pyrazine-2-carboxamide] | 5.8 | > 10000 |
| Cc1nc(N2C[C@H]3C[C@H]3C2=O)ncc1Cn1cc(NC(=O)c2nc(-c3c(C(F)F)ccc(Cl)c3F)cnc2CO)cn1 [Example 156, 6-(3-Chloro-6-(difluoromethyl)-2-fluorophenyl)-3-(hydroxymethyl)-N-(1-((4-methyl-2-((1R,5S)-2-oxo-3-azabicyclo[3.1.0]hexan-3-yl)pyrimidin-5-yl)methyl)-1H-pyrazol-4-yl)pyrazine-2-carboxamide] | 0.9 | 162 |
| Cc1nc(N2C[C@@H]3C[C@@H]3C2=O)ncc1[C@@H](CO)n1cc(NC(=O)c2cncc(-c3c(C(F)F)ccc(Cl)c3F)n2)cn1 [Example 157, 6-(3-Chloro-6-(difluoromethyl)-2-fluorophenyl)-N-(1-((S)-2-hydroxy-1-(4-methyl-2-((1S,5R)-2-oxo-3-azabicyclo[3.1.0]hexan-3-yl)pyrimidin-5-yl)ethyl)-1H-pyrazol-4-yl)pyrazine-2-carboxamide] | 1020 | > 10000 |
| Cc1nc(N2C[C@@H]3C[C@@H]3C2=O)ncc1[C@H](CO)n1cc(NC(=O)c2cncc(-c3c(C(F)F)ccc(Cl)c3F)n2)cn1 [Example 158, 6-(3-Chloro-6-(difluoromethyl)-2-fluorophenyl)-N-(1-((R)-2-hydroxy-1-(4-methyl-2-((1S,5R)-2-oxo-3-azabicyclo[3.1.0]hexan-3-yl)pyrimidin-5-yl)ethyl)-1H-pyrazol-4-yl)pyrazine-2-carboxamide] | 2720 | > 10000 |
| Cc1nc(N2C[C@H]3C[C@H]3C2=O)ncc1[C@@H](CO)n1cc(NC(=O)c2cncc(-c3c(C(F)F)ccc(Cl)c3F)n2)cn1 [Example 159, 6-(3-Chloro-6-(difluoromethyl)-2-fluorophenyl)-N-(1-((S)-2-hydroxy-1-(4-methyl-2-((1R,5S)-2-oxo-3-azabicyclo[3.1.0]hexan-3-yl)pyrimidin-5-yl)ethyl)-177-pyrazol-4-yl)pyrazine-2-carboxamide] | 11.2 | 6900 |

Reference: patent publication US20230286958A1, “PLASMA KALLIKREIN INHIBITORS” (Merck Sharp & Dohme LLC, priority 2020, published 2023)
